Assay results published in the OligoGym collection.
Bases are written 5' to 3'; sugars and linkages follow in the same order, as letters with counts (s phosphorothioate, o phosphodiester; PS: all linkages phosphorothioate). C may stand for cytosine or 5-methylcytosine; the collection does not tell. l = locked nucleic acid (LNA); d = 2'-deoxy (DNA)

Each sequence was assayed against HIF1A (assay: HeLa, 100 nM transfected, 24 h, mean of 3). Conditions: ASO.

Compared with “TGGCAAGCATCCTGTA (sugars ldldldddddddddll, PS)”, “TGGCAAGCATCCTGTA (sugars ldddlddddddllldl, PS)” is higher in caspase activation (% of PBS control): 210 for the first, 224 for the second.

First: TGGCAAGCATCCTGTA (sugars l1 d10 l3 d1 l1, PS)
Second: GTTACTGCCTTCTTAC (sugars l3 d10 l1 d1 l1, PS)
The caspase activation (% of PBS control) of the first is higher: 381 for the first, 161 for the second.

Going from “TGGCAAGCATCCTGTA (sugars l5 d6 l1 d3 l1, PS)” to “GTTACTGCCTTCT (sugars l1 d1 l1 d8 l2, PS)”, the caspase activation (% of PBS control) falls from 371 to 123.

Going from “TGGCAAGCATCCTGTA (sugars l2 d1 l1 d11 l1, PS)” to “GTTACTGCCTTCTTAC (sugars llddldddddddlldl, PS)”, the caspase activation (% of PBS control) falls from 378 to 330.

Going from “TGGCAAGCATCCTGTA (sugars lldldddddddddldl, PS)” to “GGCAAGCATCCTG (sugars l2 d1 l1 d8 l1, PS)”, the caspase activation (% of PBS control) falls from 522 to 359.

Compared with “GTTACTGCCTTCTTAC (sugars l1 d2 l1 d8 l4, PS)”, “TGGCAAGCATCCTGTA (sugars l1 d3 l1 d9 l2, PS)” is lower in caspase activation (% of PBS control): 175 for the first, 135 for the second.

First: GGCAAGCATCCTG (sugars l3 d8 l2, PS)
Second: TGGCAAGCATCCTGTA (sugars ldddlddddddldldl, PS)
The caspase activation (% of PBS control) of the first is higher: 642 for the first, 213 for the second.

Compared with “TGGCAAGCATCCTGTA (sugars l2 d9 l2 d2 l1, PS)”, “TGGCAAGCATCCT (sugars l1 d2 l1 d7 l2, PS)” is lower in caspase activation (% of PBS control): 422 for the first, 157 for the second.

Going from “GTTACTGCCTTCTTAC (sugars lldllddddddddldl, PS)” to “TGGCAAGCATCCTGTA (sugars l4 d7 l1 d2 l2, PS)”, the caspase activation (% of PBS control) rises from 291 to 323.

Going from “GTTACTGCCTTCTTAC (sugars l1 d1 l2 d10 l2, PS)” to “TGGCAAGCATCCTGTA (sugars ldddlddddddlddll, PS)”, the caspase activation (% of PBS control) rises from 130 to 221.

First: TACTGCCTTCTTA (sugars l2 d8 l3, PS)
Second: GTTACTGCCTTCT (sugars l1 d2 l1 d6 l3, PS)
The caspase activation (% of PBS control) of the first is higher: 363 for the first, 134 for the second.

First: GGCAAGCATCCTG (sugars l1 d1 l2 d7 l2, PS)
Second: GTTACTGCCTTCTTAC (sugars llldlddddddlldll, PS)
The caspase activation (% of PBS control) of the first is higher: 688 for the first, 307 for the second.

Going from “CAAGCATCCTGTA (sugars l3 d7 l1 d1 l1, PS)” to “GTTACTGCCTTCTTAC (sugars l1 d10 l1 d1 l3, PS)”, the caspase activation (% of PBS control) falls from 302 to 125.

Going from “GTTACTGCCTTCTTAC (sugars llddlddddddldldl, PS)” to TGGCAAGCATCCT (sugars l4 d6 l3, PS), the caspase activation (% of PBS control) rises from 235 to 361.

Going from “TTACTGCCTTCTT (sugars l1 d1 l1 d7 l3, PS)” to “TACTGCCTTCTTA (sugars l1 d1 l2 d8 l1, PS)”, the caspase activation (% of PBS control) rises from 183 to 270.

First: TGGCAAGCATCCTGTA (sugars ldldlddddddllddl, PS)
Second: GTTACTGCCTTCTTAC (sugars ldlllddddddldddl, PS)
The caspase activation (% of PBS control) of the first is lower: 219 for the first, 453 for the second.

First: TTACTGCCTTCTT (sugars l3 d7 l1 d1 l1, PS)
Second: TGGCAAGCATCCTGTA (sugars lldllddddddllddl, PS)
The caspase activation (% of PBS control) of the first is lower: 205 for the first, 354 for the second.

Going from “TACTGCCTTCTTA (sugars l1 d1 l2 d7 l2, PS)” to “TGGCAAGCATCCTGTA (sugars l3 d9 l2 d1 l1, PS)”, the caspase activation (% of PBS control) rises from 448 to 634.

Compared with “GCAAGCATCCTGT (sugars l1 d2 l1 d8 l1, PS)”, GTTACTGCCTTCTTAC (sugars l1 d14 l1, PS) is lower in caspase activation (% of PBS control): 187 for the first, 102 for the second.

Going from “TGGCAAGCATCCTGTA (sugars l1 d1 l3 d6 l5, PS)” to “GTTACTGCCTTCTTAC (sugars l1 d1 l1 d12 l1, PS)”, the caspase activation (% of PBS control) falls from 482 to 103.

Compared with “CAAGCATCCTGTA (sugars l1 d2 l1 d8 l1, PS)”, “GTTACTGCCTTCTTAC (sugars l4 d9 l1 d1 l1, PS)” is higher in caspase activation (% of PBS control): 101 for the first, 191 for the second.

First: GGCAAGCATCCTG (sugars l1 d9 l1 d1 l1, PS)
Second: GTTACTGCCTTCTTAC (sugars lldllddddddlldll, PS)
The caspase activation (% of PBS control) of the first is higher: 390 for the first, 289 for the second.

First: CAAGCATCCTGTA (sugars l3 d8 l2, PS)
Second: TACTGCCTTCTTA (sugars lldlddddddldl, PS)
The caspase activation (% of PBS control) of the first is higher: 302 for the first, 293 for the second.

Going from TGGCAAGCATCCT (sugars l2 d10 l1, PS) to “TGGCAAGCATCCTGTA (sugars lddldddddddlldll, PS)”, the caspase activation (% of PBS control) falls from 364 to 356.

First: GTTACTGCCTTCTTAC (sugars lldllddddddldlll, PS)
Second: TGGCAAGCATCCTGTA (sugars l1 d2 l2 d7 l4, PS)
The caspase activation (% of PBS control) of the first is lower: 278 for the first, 435 for the second.

Going from “TGGCAAGCATCCTGTA (sugars l1 d2 l2 d10 l1, PS)” to “GTTACTGCCTTCTTAC (sugars lddlddddddddldll, PS)”, the caspase activation (% of PBS control) falls from 367 to 130.

Going from “TTACTGCCTTCTT (sugars l1 d1 l2 d8 l1, PS)” to TACTGCCTTCTTA (sugars l4 d8 l1, PS), the caspase activation (% of PBS control) rises from 153 to 435.

Going from “GTTACTGCCTTCTTAC (sugars lldllddddddlddll, PS)” to “CAAGCATCCTGTA (sugars l1 d1 l2 d8 l1, PS)”, the caspase activation (% of PBS control) falls from 261 to 145.

Going from GTTACTGCCTTCTTAC (sugars l1 d13 l2, PS) to “GTTACTGCCTTCTTAC (sugars l3 d1 l1 d6 l5, PS)”, the caspase activation (% of PBS control) rises from 87.3 to 474.

Compared with “GTTACTGCCTTCTTAC (sugars ldddldddddddlddl, PS)”, “GTTACTGCCTTCTTAC (sugars l5 d6 l1 d3 l1, PS)” is higher in caspase activation (% of PBS control): 142 for the first, 454 for the second.

Compared with GTTACTGCCTTCTTAC (sugars l2 d10 l4, PS), “TTACTGCCTTCTT (sugars l1 d2 l1 d7 l2, PS)” is lower in caspase activation (% of PBS control): 151 for the first, 126 for the second.

First: TACTGCCTTCTTA (sugars l3 d9 l1, PS)
Second: GTTACTGCCTTCT (sugars l1 d9 l1 d1 l1, PS)
The caspase activation (% of PBS control) of the first is higher: 286 for the first, 104 for the second.

Going from “TGGCAAGCATCCT (sugars l4 d6 l1 d1 l1, PS)” to GCAAGCATCCTGT (sugars l3 d9 l1, PS), the caspase activation (% of PBS control) falls from 480 to 346.

Going from “GTTACTGCCTTCTTAC (sugars llldlddddddllldl, PS)” to TTACTGCCTTCTT (sugars l3 d8 l2, PS), the caspase activation (% of PBS control) falls from 485 to 226.

Going from “GTTACTGCCTTCT (sugars l2 d1 l1 d8 l1, PS)” to “GTTACTGCCTTCTTAC (sugars lddddddddddldldl, PS)”, the caspase activation (% of PBS control) falls from 133 to 115.

Going from “ACTGCCTTCTTAC (sugars l1 d1 l2 d7 l2, PS)” to “TGGCAAGCATCCTGTA (sugars ldlddddddddllddl, PS)”, the caspase activation (% of PBS control) falls from 217 to 197.

First: GTTACTGCCTTCTTAC (sugars l1 d11 l1 d2 l1, PS)
Second: GCAAGCATCCTGT (sugars l1 d10 l2, PS)
The caspase activation (% of PBS control) of the first is higher: 115 for the first, 112 for the second.

Compared with “GTTACTGCCTTCTTAC (sugars ldlddddddddllddl, PS)”, “TGGCAAGCATCCTGTA (sugars l2 d1 l1 d9 l3, PS)” is higher in caspase activation (% of PBS control): 158 for the first, 520 for the second.

Compared with “TGGCAAGCATCCTGTA (sugars lddllddddddlddll, PS)”, GCAAGCATCCTGT (sugars l1 d11 l1, PS) is lower in caspase activation (% of PBS control): 257 for the first, 137 for the second.

Compared with “TGGCAAGCATCCTGTA (sugars l1 d1 l2 d7 l5, PS)”, “TGGCAAGCATCCT (sugars ldllddddddldl, PS)” is lower in caspase activation (% of PBS control): 415 for the first, 377 for the second.

Compared with ACTGCCTTCTTAC (sugars l2 d8 l3, PS), “GTTACTGCCTTCTTAC (sugars l1 d10 l2 d2 l1, PS)” is lower in caspase activation (% of PBS control): 209 for the first, 134 for the second.

Compared with “GTTACTGCCTTCTTAC (sugars lldlddddddddlddl, PS)”, GTTACTGCCTTCTTAC (sugars l3 d12 l1, PS) is lower in caspase activation (% of PBS control): 135 for the first, 127 for the second.

Going from “TGGCAAGCATCCTGTA (sugars ldddlddddddldddl, PS)” to “TGGCAAGCATCCTGTA (sugars ldlddddddddllldl, PS)”, the caspase activation (% of PBS control) rises from 159 to 254.

First: TGGCAAGCATCCTGTA (sugars ldlldddddddllldl, PS)
Second: TGGCAAGCATCCTGTA (sugars l1 d1 l1 d11 l2, PS)
The caspase activation (% of PBS control) of the first is higher: 438 for the first, 135 for the second.

Compared with GTTACTGCCTTCTTAC (sugars l1 d10 l5, PS), “TGGCAAGCATCCTGTA (sugars ldlllddddddldlll, PS)” is higher in caspase activation (% of PBS control): 350 for the first, 476 for the second.

Compared with “GTTACTGCCTTCTTAC (sugars l1 d1 l1 d8 l5, PS)”, TGGCAAGCATCCTGTA (sugars l3 d12 l1, PS) is lower in caspase activation (% of PBS control): 298 for the first, 237 for the second.

Compared with TGGCAAGCATCCT (sugars l3 d9 l1, PS), “TGGCAAGCATCCTGTA (sugars ldldddddddddlddl, PS)” is lower in caspase activation (% of PBS control): 287 for the first, 172 for the second.

First: TGGCAAGCATCCTGTA (sugars ldlllddddddlddll, PS)
Second: TGGCAAGCATCCTGTA (sugars l2 d1 l2 d10 l1, PS)
The caspase activation (% of PBS control) of the first is higher: 410 for the first, 401 for the second.

First: TACTGCCTTCTTA (sugars l4 d7 l2, PS)
Second: GTTACTGCCTTCTTAC (sugars ldddlddddddldldl, PS)
The caspase activation (% of PBS control) of the first is higher: 594 for the first, 161 for the second.

First: TGGCAAGCATCCTGTA (sugars ldddldddddddlddl, PS)
Second: GTTACTGCCTTCTTAC (sugars l3 d8 l3 d1 l1, PS)
The caspase activation (% of PBS control) of the first is lower: 173 for the first, 360 for the second.

Work on “GTTACTGCCTTCTTAC (sugars l1 d2 l1 d11 l1, PS)” yielded a caspase activation (% of PBS control) of 91.7.
